The text below walks through data of ChEMBL document CHEMBL1129680, “Discovery of novel, non-peptide HIV-1 protease inhibitors by pharmacophore searching” (J Med Chem, 1996).

In experiment [1] the target is Human immunodeficiency virus type 1 protease (Human immunodeficiency virus 1) (UniProt Q72874). The experiment in a line: Evaluated for the inhibition of HIV-1 Protease.
For experiment [2], the species on record is Homo sapiens. The experiment in a line: Antiviral activity against HIV virus induced infection in human PBLs cells. In kind it is functional, cell-based.
For experiment [3], the species on record is Homo sapiens. As to the kind of experiment: Cytotoxicitic activity […] in human PBLs cells. In kind it is functional, cell-based.
Experiment [4] concerns the target Human immunodeficiency virus type 1 integrase (Human immunodeficiency virus 1) (UniProt Q7ZJM1). The experiment in a line: Inhibitory concentration against HIV-1 Integrase 3' chain transfer.
The target of experiment [5] is Human immunodeficiency virus type 1 reverse transcriptase (Human immunodeficiency virus 1) (UniProt Q72547). As to the kind of experiment: Inhibitory concentration against Reverse Transcriptase.
A short description of experiment [6]: Inhibition of compound against p7 nucleocapsid fluorescence intensity of the zinc finger ); NI = No inhibition. In kind it is functional.
Experiment [7] concerns the target Human immunodeficiency virus type 1 protease (Human immunodeficiency virus 1) (UniProt Q72874).
The target of experiment [8] is Human immunodeficiency virus type 1 integrase (Human immunodeficiency virus 1) (UniProt Q7ZJM1). As to the kind of experiment: Inhibitory concentration against HIV-1 Integrase 3' chain processing.
Human immunodeficiency virus type 1 integrase (Human immunodeficiency virus 1), sequence (Q7ZJM1 as listed by the source): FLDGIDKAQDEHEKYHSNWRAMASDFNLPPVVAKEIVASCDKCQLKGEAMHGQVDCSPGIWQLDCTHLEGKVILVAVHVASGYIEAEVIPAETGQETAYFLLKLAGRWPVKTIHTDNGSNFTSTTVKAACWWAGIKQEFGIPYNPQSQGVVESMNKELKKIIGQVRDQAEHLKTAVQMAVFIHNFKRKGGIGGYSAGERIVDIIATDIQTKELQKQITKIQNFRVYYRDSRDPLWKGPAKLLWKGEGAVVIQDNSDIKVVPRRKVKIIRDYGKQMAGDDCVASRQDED
Experiment [9] deals with Human immunodeficiency virus type 1 protease (Human immunodeficiency virus 1) (UniProt Q72874). The source holds these as a separate data set.
Description: Inhibitory concentration against HIV-1 Protease

One may read the pEC50 as the negative decadic logarithm of the EC50, by convention in mol/L. A higher pEC50 goes with a small EC50. In general, pIC50 refers to the IC50 on a negative log10 scale, so that one unit is a factor of ten. A higher pIC50 goes with a small IC50.

pEC50, pIC50: −log10 of the molar value. Active and inactive are the calls of the source. The rule behind the calls is not given here.

Take `O=c1oc2cccc(O)c2c(O)c1Cc1ccccc1`: the ID50 in [1] was 6 µM. As to `CC(=O)NC(Cc1ccsc1)(C(=O)O)C(=O)O`, the ID50 in [1] came out at 23 µM. In [1], `CCCCCCc1cc2c(cc1O)OC(=O)C(C(c1ccccc1)c1c(O)oc3cc(O)c(CCCCCC)cc3c1=O)C2O` (configuration not stated) came in with an ID50 of 0.32 µM. In experiment [1], `O=C(Oc1ccccc1)N(CCO)C(c1ccccc1)C(O)c1ccccc1` (configuration not stated) registered an ID50 of 32 µM. On the same count and under the same terms, the value for `CC(=O)OC1CCC2(C)C(C)C(C)CCC2(O)C1O` (configuration not stated) was 16 µM; that for `O=c1oc2c(-c3ccccc3)cccc2c(O)c1-c1ccccc1` was 13 µM; that for `O=C1C2=C(C(=O)c3ccccc31)C(O)(S(=O)(=O)O)C(O)(S(=O)(=O)O)C1N=CC=CC21` (configuration not stated) was 2 µM. In turn, `C[C@]12CCC(=O)C=C1CC[C@@H]1[C@@H]2[C@@H](O)C[C@@]2(C)[C@H]1CC[C@]2(O)C(=O)COC(=O)CCC(=O)O` gave an ID50 in [1] of 27 µM. As for `O=c1c(C(c2ccc3c(c2)OCO3)c2c(O)oc3ccccc3c2=O)c(O)oc2ccccc12`, the ID50 in experiment [1] was 30 µM.

Consider `O=c1oc2ccccc2c(O)c1-c1ccccc1`, for which the ID50 in [1] amounted to 42 µM.

In experiment [1], `CC(C)c1cccc(C(C)C)c1NC(=O)C(=O)CC(=O)CC(c1ccccc1)c1c(O)oc2ccccc2c1=O` (configuration not stated) came in with an ID50 of 31 µM.

In the case of `O=C1C(O)=C(C(C2=C(O)C(=O)c3ccccc3C2=O)c2ccc(C(C3=C(O)C(=O)c4ccccc4C3=O)C3=C(O)C(=O)c4ccccc4C3=O)cc2)C(=O)c2ccccc21`, the ID50 in [1] was found to be 0.75 µM. The compound `Cc1cn([C@H]2C[C@H](N=[N+]=[N-])[C@@H](COP(=O)(O)OP(=O)(O)OP(=O)(O)O)O2)c(=O)[nH]c1=O` displayed an ID50 in experiment [1] of 54 µM. Same read-out and setting: the result for `CCCC(=O)C1=C(O)C(Cc2c(O)c(C)c(O)c(C(=O)CCC)c2O)=C(O)C(C)(C)C1=O` reads 26 µM; that for `CC1(C)CC[C@]2(C(=O)O)CC[C@]3(C)C(=CC[C@@H]4[C@@]5(C)C[C@H](O)[C@H](O)[C@@](C)(C(=O)O)[C@H]5CC[C@]43C)[C@@H]2C1`, 35 µM. Take `O=C1C(O)=C(C(C2=C(O)C(=O)c3ccccc3C2=O)c2ccc(Cl)cc2Cl)C(=O)c2ccccc21`: the ID50 in experiment [1] is 24 µM. `CC(C)CC(NC(=O)OCc1ccccc1)(C(=O)O)C(=O)O`: the ID50 in [1] came to 17 µM.

For `O=c1c(C(c2ccc(C(c3c(O)oc4ccccc4c3=O)c3c(O)oc4ccccc4c3=O)cc2)c2c(O)oc3ccccc3c2=O)c(O)oc2ccccc12`, the pEC50 in the experiment filed under Homo sapiens [2] is 4.94. In the experiment filed under Homo sapiens [3], this compound showed a pIC50 of 4.26. Further, the ID50 was 0.7 µM in experiment [4]; 7.1 µM in experiment [5]; 1.5 µM in experiment [8]; 1.7 µM in experiment [1]; 1.7 µM in experiment [9]. Moreover, the RFU result in experiment [6] was “inactive”. Further, in experiment [7], the ID50 result was “inactive”. `O=C1Oc2ccccc2C(O)C1Sc1c(O)oc2ccccc2c1=O` (configuration not stated) came in with an ID50 in experiment [1] of 21 µM.
